From patent publication US8535928B2, “Protease and use thereof” (Osaka University, priority 2008, dated 2013)
Starred links: 1 amine or outer side, 2 acyl side, 3 side chain; linkers in the order of their positions; H or OH if unused. Residues, ends and D or L forms follow the SMILES beside them. *: point of attachment. pNA = O=[N+]([O-])c1ccc(N*)cc1; Suc = O=C(CCC(=O)[*:2])[*:1]

Biological target: T1, Thermococcus kodakaraensis KOD1 protease Tk-SP (mature subtilisin-like serine protease, SEQ ID NO: 1 or SEQ ID NO: 3) (Thermococcus kodakarensis, UniProt Q5JIZ5)
T1 construct: C-terminus at 562 or 563
T1 sequence (Q5JIZ5 137-562): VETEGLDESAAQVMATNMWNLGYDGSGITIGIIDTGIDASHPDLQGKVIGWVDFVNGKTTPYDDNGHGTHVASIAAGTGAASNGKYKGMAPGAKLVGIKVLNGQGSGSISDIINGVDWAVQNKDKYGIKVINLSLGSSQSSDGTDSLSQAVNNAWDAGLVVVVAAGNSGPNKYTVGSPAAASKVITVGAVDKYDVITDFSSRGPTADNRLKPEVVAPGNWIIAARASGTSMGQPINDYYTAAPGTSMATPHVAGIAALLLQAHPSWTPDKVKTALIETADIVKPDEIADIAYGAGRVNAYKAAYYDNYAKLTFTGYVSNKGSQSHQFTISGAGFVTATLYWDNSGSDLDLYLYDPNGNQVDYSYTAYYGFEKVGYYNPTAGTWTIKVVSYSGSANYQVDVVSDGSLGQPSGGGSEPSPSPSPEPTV
Assay: Rate parameters of Tk-SP with Suc-AAPF-pNA (Michaelis-Menten)
Type: biochemical
Method: For examination of the pH dependence and the buffer dependence of the Tk-SP, enzyme reactions were performed using acetate buffers (pH 4.5, 5.0, 5.2, 5.4 and 5.6), MES buffers (pH 5.5, 6.0, 6.5 and 7.0), HEPES buffers (pH 7.0 and 7.5), Tris-HCl buffers (pH 7.0, 7.5, 8.0, 8.5 and 9.0), glycine-NaOH buffers (pH 8.5, 9.0, 9.5 and 10.0) and CAPS-NaOH buffers (pH 9.0, 9.5, 10.0, 10.5, 11.0 and 11.5) in the following procedure. 100 μl of a reaction mixture containing a 50 mM buffer and 2 mM Suc-AAPF-pNA (synthetic substrate) was incubated at 20° C. for 5 minutes. To this, 0.1 μg of the Tk-SP was added and the reaction mixture was further incubated at 20° C. for 10 minutes. The reaction was stopped by addition of 10 μl of acetic acid, and then the amount of p-nitroaniline produced from the synthetic substrate Suc-AAPF-pNA was determined by use of the absorption coefficient of 8900 M^−1 cm^−1 from the absorbance at 410 nm in an ultraviolet spectrophotometer (Beckman model DU640). The amount of the enzyme which catalyzes the production of 1 μmol of p-nitroaniline per minute was defined as “one unit.” The enzyme activity per milligram of the protein was defined as specific activity.
By use of, as a substrate, Suc-AAPF-pNA at various concentrations ranging from 0.01 to 2 mM, the specific activity of the Tk-SP was measured at 20 and 80° C. The measurement procedure was the same as that of Example 2. The obtained values were applied to the Michaelis-Menten equation for calculation of the rate parameters. For comparison, the specific activity of a known thermostable protease, Tk-subtilisin (see nonpatent literature 1) was similarly measured and then the rate parameters thereof were calculated.

C[C@H](NC(=O)CCC(=O)O)C(=O)N[C@@H](C)C(=O)N1CCC[C@H]1C(=O)N[C@@H](Cc1ccccc1)C(=O)Nc1ccc([N+](=O)[O-])cc1 [Suc-AAPF-pNA] (Suc-AAPF-pNA)
Km value relative to the Km value of Tk-subtilisin (80° C.): about 1/10
Km (80° C., substrate 0.01 to 2 mM): 100 to 1000 µM
Km value compared with that of Tk-subtilisin (at either temperature (20 and 80° C.)): smaller than that of Tk-subtilisin
